Each compound was assayed on MV4-11 cells (assay: Cell proliferation assay MV4;11 (CellTiter-Glo, 72 hours)). Details: Homo sapiens; MV4;11 leukemia cell line, 72 hours; read-out: MV4; 11 IC50.
Type: cell-based
Description: Compounds were evaluated for its capacity to inhibit the proliferation of the MLLr leukemia cell line MV4-11 that harbors an MLL1-AF4 fusion protein. MV4-11 cells were cultured for 72 hours with limiting dilutions of compounds and viability was measured using CellTiter-Glo.
Compounds were dissolved to obtain as 10 mM solution in DMSO. The stock was diluted 1:5 to the top concentration of 2 mM in 100% DMSO. For IC50 determination, serial 1:3.16 dilutions were prepared in 100% DMSO by diluting 20 μL into 43.5 μL of DMSO for 8 concentrations. Each prepared DMSO solution were further diluted 1:500 in the cell culture media to obtain the 2× dosing solutions. The final concentrations of tested compounds in the cell culture media ranged from 0.632 nM to 2000 nM.
MV4-11 cells were cultured in IMDM with 10% FBS and 1× Penicillin-Streptomycin at 5% CO2 and 37° C. A cell suspension was prepared containing 15,000 cells/ml in the culture medium and 100 μL of this suspension was added per well to a 96-well cell culture plate. Then, 100 μL of 2× dosing media containing test compounds were added bringing the total volume to 200 μL. These cells were cultured for 72 hours at 37° C. and 5% CO2 in a humidified incubator.
After 72 hours, the cultured cells were mixed and 100p L was transferred to a 96-well black plate. Cell Titer Glo (100 μl) was then added to this plate. The plate was mixed with shaking for 15 mins at RT, the luminescence was then measured using Tecan Spark 20M spectrophotometer. Cell Viability (%) was determined by RLU of test/RLU average vehicle control*100 and % max inhibition was determined by 100−(% cell viability remaining at the top concentration of compound).
With `CCNS(=O)(=O)N[C@H]1CC[C@H](CN2CCC3(CC2)CN(c2ncnnc2Oc2ccc(F)cc2C(=O)N(CC(F)(F)F)C(C)C)C3)OC1` (stereo in doubt) [Example 193, 2-((5-(7-(((2R,5S)-5-((N-Ethylsulfamoyl)amino)tetrahydro-2H-pyran-2-yl)methyl)-2,7-diazaspiro[3.5]nonan-2-yl)-1,2,4-triazin-6-yl)oxy)-5-fluoro-N-isopropyl-N-(2,2,2-trifluoroethyl)benzamide] the IC50 was less than 100 nM.
`CC(C)N(CC(F)(F)F)C(=O)c1cc(F)ccc1Oc1nncnc1N1CC2(CCN(C[C@H]3CC[C@H](NS(=O)(=O)N4CCC4)CO3)CC2)C1` (stereo in doubt) [Example 194, 2-((5-(7-(((2R,5S)-5-(Azetidine-1-sulfonamido)tetrahydro-2H-pyran-2-yl)methyl)-2,7-diazaspiro[3.5]nonan-2-yl)-1,2,4-triazin-6-yl)oxy)-5-fluoro-N-isopropyl-N-(2,2,2-trifluoroethyl)benzamide] was tested, and the IC50 was less than 100 nM.
`CCN(C(=O)c1cc(F)ccc1Oc1cncnc1N1CC2(CCN(C[C@@H]3CC[C@@H](NS(C)(=O)=O)CO3)CC2)C1)C(C)C` [Example 1, N-Ethyl-5-fluoro-N-isopropyl-2-((4-(7-(((2S,5R)-5-(methylsulfonamido)tetrahydro-2H-pyran-2-yl)methyl)-2,7-diazaspiro[3.5]nonan-2-yl)pyrimidin-5-yl)oxy)benzamide] gave an IC50 of less than 100 nM.
For `CCN(C(=O)c1cc(F)ccc1Oc1cncnc1N1CC2(CCN(C[C@@H]3CC[C@@H](NS(=O)(=O)CC)CO3)CC2)C1)C(C)C` [Example 2, N-Ethyl-2-((4-(7-(((2S,5R)-5-(ethylsulfonamido)tetrahydro-2H-pyran-2-yl)methyl)-2,7-diazaspiro[3.5]nonan-2-yl)pyrimidin-5-yl)oxy)-5-fluoro-N-isopropylbenzamide], the IC50 was less than 100 nM.
In the case of `CCN(C(=O)c1cc(F)ccc1Oc1cncnc1N1CC2(CCN(C[C@@H]3CC[C@@H](NS(=O)(=O)C(C)C)CO3)CC2)C1)C(C)C` [Example 3, N-Ethyl-5-fluoro-N-isopropyl-2-((4-(7-(((2S,5R)-5-((1-methylethyl)sulfonamido)tetrahydro-2H-pyran-2-yl)methyl)-2,7-diazaspiro[3.5]nonan-2-yl)pyrimidin-5-yl)oxy)benzamide], the IC50 is reported as less than 100 nM.
For `CCN(C(=O)c1cc(F)ccc1Oc1cncnc1N1CC2(CCN(C[C@@H]3CC[C@@H](NS(=O)(=O)C4CC4)CO3)CC2)C1)C(C)C` [Example 4, 2-((4-(7-(((2S,5R)-5-(Cyclopropanesulfonamido)tetrahydro-2H-pyran-2-yl)methyl)-2,7-diazaspiro[3.5]nonan-2-yl)pyrimidin-5-yl)oxy)-N-ethyl-5-fluoro-N-isopropylbenzamide], the IC50 was less than 100 nM.
Work on `CCN(C(=O)c1cc(F)ccc1Oc1cncnc1N1CC2(CCN(C[C@@H]3CC[C@@H](NS(=O)(=O)C4COC4)CO3)CC2)C1)C(C)C` [Example 5, N-Ethyl-5-fluoro-N-isopropyl-2-((4-(7-(((2S,5R)-5-(oxetane-3-sulfonamido)tetrahydro-2H-pyran-2-yl)methyl)-2,7-diazaspiro[3.5]nonan-2-yl)pyrimidin-5-yl)oxy)benzamide] yielded an IC50 of less than 100 nM.
`CCN(C(=O)c1cc(F)ccc1Oc1cncnc1N1CC2(CCN(C[C@@H]3CC[C@@H](NS(=O)(=O)C4CCC4)CO3)CC2)C1)C(C)C` [Example 6, 2-((4-(7-(((2S,5R)-5-(Cyclobutanesulfonamido)tetrahydro-2H-pyran-2-yl)methyl)-2,7-diazaspiro[3.5]nonan-2-yl)pyrimidin-5-yl)oxy)-N-ethyl-5-fluoro-N-isopropylbenzamide] was tested, and the IC50 was less than 100 nM.
`CCN(C(=O)c1cc(F)ccc1Oc1cncnc1N1CC2(CCN(C[C@@H]3CC[C@@H](NS(=O)(=O)CC4CC4)CO3)CC2)C1)C(C)C` [Example 7, 2-((4-(7-(((2S,5R)-5-((Cyclopropylmethyl)sulfonamido)tetrahydro-2H-pyran-2-yl)methyl)-2,7-diazaspiro[3.5]nonan-2-yl)pyrimidin-5-yl)oxy)-N-ethyl-5-fluoro-N-isopropylbenzamide] showed an IC50 of less than 100 nM.
In the case of `CCN(C(=O)c1cc(F)ccc1Oc1cncnc1N1CC2(CCN(C[C@@H]3CC[C@@H](NS(=O)(=O)CCOC)CO3)CC2)C1)C(C)C` [Example 8, N-Ethyl-5-fluoro-N-isopropyl-2-((4-(7-(((2S,5R)-5-((2-methoxyethyl)sulfonamido)tetrahydro-2H-pyran-2-yl)methyl)-2,7-diazaspiro[3.5]nonan-2-yl)pyrimidin-5-yl)oxy)benzamide], the IC50 is reported as less than 100 nM.
`CCCS(=O)(=O)N[C@@H]1CC[C@@H](CN2CCC3(CC2)CN(c2ncncc2Oc2ccc(F)cc2C(=O)N(CC)C(C)C)C3)OC1` [Example 9, N-Ethyl-5-fluoro-N-isopropyl-2-((4-(7-(((2S,5R)-5-(propylsulfonamido)tetrahydro-2H-pyran-2-yl)methyl)-2,7-diazaspiro[3.5]nonan-2-yl)pyrimidin-5-yl)oxy)benzamide] showed an IC50 of less than 100 nM.
`CCN(C(=O)c1cc(F)ccc1Oc1cncnc1N1CC2(CCN(C[C@@H]3CC[C@@H](NC(=O)OC(C)(C)C)CO3)CC2)C1)C(C)C` [Example 11, tert-Butyl ((3R,6S)-6-((2-(5-(2-(ethyl(isopropyl)carbamoyl)-4-fluorophenoxy)pyrimidin-4-yl)-2,7-diazaspiro[3.5]nonan-7-yl)methyl)tetrahydro-2H-pyran-3-yl)carbamate] gave an IC50 of less than 100 nM.
In the case of `CC(C)N(C(=O)c1cc(F)ccc1Oc1cncnc1N1CC2(CCN(C[C@@H]3CC[C@@H](NS(C)(=O)=O)CO3)CC2)C1)C(C)C` [Example 12, 5-Fluoro-N,N-diisopropyl-2-((4-(7-(((2S,5R)-5-(methylsulfonamido)tetrahydro-2H-pyran-2-yl)methyl)-2,7-diazaspiro[3.5]nonan-2-yl)pyrimidin-5-yl)oxy)benzamide], the IC50 is reported as less than 100 nM.
Work on `CCS(=O)(=O)N[C@@H]1CC[C@@H](CN2CCC3(CC2)CN(c2ncncc2Oc2ccc(F)cc2C(=O)N(C(C)C)C(C)C)C3)OC1` [Example 13, 2-((4-(7-(((2S,5R)-5-(Ethylsulfonamido)tetrahydro-2H-pyran-2-yl)methyl)-2,7-diazaspiro[3.5]nonan-2-yl)pyrimidin-5-yl)oxy)-5-fluoro-N,N-diisopropylbenzamide] yielded an IC50 of less than 100 nM.
For `CC(C)N(C(=O)c1cc(F)ccc1Oc1cncnc1N1CC2(CCN(C[C@@H]3CC[C@@H](NS(=O)(=O)C(C)C)CO3)CC2)C1)C(C)C` [Example 14, 5-Fluoro-N,N-diisopropyl-2-((4-(7-(((2S,5R)-5-((1-methylethyl)sulfonamido)tetrahydro-2H-pyran-2-yl)methyl)-2,7-diazaspiro[3.5]nonan-2-yl)pyrimidin-5-yl)oxy)benzamide], the IC50 was less than 100 nM.
`CC(C)N(C(=O)c1cc(F)ccc1Oc1cncnc1N1CC2(CCN(C[C@@H]3CC[C@@H](NS(=O)(=O)C4CC4)CO3)CC2)C1)C(C)C` [Example 15, 2-((4-(7-(((2S,5R)-5-(Cyclopropanesulfonamido)tetrahydro-2H-pyran-2-yl)methyl)-2,7-diazaspiro[3.5]nonan-2-yl)pyrimidin-5-yl)oxy)-5-fluoro-N,N-diisopropylbenzamide] was tested, and the IC50 was less than 100 nM.
Compound `CC(C)N(C(=O)c1cc(F)ccc1Oc1cncnc1N1CC2(CCN(C[C@@H]3CC[C@@H](NS(=O)(=O)C4COC4)CO3)CC2)C1)C(C)C` [Example 16, 5-Fluoro-N,N-diisopropyl-2-((4-(7-(((2S,5R)-5-(oxetane-3-sulfonamido)tetrahydro-2H-pyran-2-yl)methyl)-2,7-diazaspiro[3.5]nonan-2-yl)pyrimidin-5-yl)oxy)benzamide] has an IC50 of less than 100 nM.
In the case of `CC(C)N(C(=O)c1cc(F)ccc1Oc1cncnc1N1CC2(CCN(C[C@@H]3CC[C@@H](NC(=O)OC(C)(C)C)CO3)CC2)C1)C1CC1` [Example 17, tert-Butyl ((3R,6S)-6-((2-(5-(2-(cyclopropyl(isopropyl)carbamoyl)-4-fluorophenoxy)pyrimidin-4-yl)-2,7-diazaspiro[3.5]nonan-7-yl)methyl)tetrahydro-2H-pyran-3-yl)carbamate], the IC50 is reported as less than 100 nM.
`CCS(=O)(=O)N[C@@H]1CC[C@@H](CN2CCC3(CC2)CN(c2ncncc2Oc2ccc(F)cc2C(=O)N(C(C)C)C2CC2)C3)OC1` [Example 19, N-Cyclopropyl-2-((4-(7-(((2S,5R)-5-(ethylsulfonamido)tetrahydro-2H-pyran-2-yl)methyl)-2,7-diazaspiro[3.5]nonan-2-yl)pyrimidin-5-yl)oxy)-5-fluoro-N-isopropylbenzamide] showed an IC50 of less than 100 nM.
Work on `CC(C)N(C(=O)c1cc(F)ccc1Oc1cncnc1N1CC2(CCN(C[C@@H]3CC[C@@H](NS(=O)(=O)C(C)C)CO3)CC2)C1)C1CC1` [Example 20, N-Cyclopropyl-5-fluoro-N-isopropyl-2-((4-(7-(((2S,5R)-5-((1-methylethyl)sulfonamido)tetrahydro-2H-pyran-2-yl)methyl)-2,7-diazaspiro[3.5]nonan-2-yl)pyrimidin-5-yl)oxy)benzamide] yielded an IC50 of less than 100 nM.
`CC(C)N(C(=O)c1cc(F)ccc1Oc1cncnc1N1CC2(CCN(C[C@@H]3CC[C@@H](NS(=O)(=O)C4CC4)CO3)CC2)C1)C1CC1` [Example 21, 2-((4-(7-(((2S,5R)-5-(Cyclopropanesulfonamido)tetrahydro-2H-pyran-2-yl)methyl)-2,7-diazaspiro[3.5]nonan-2-yl)pyrimidin-5-yl)oxy)-N-cyclopropyl-5-fluoro-N-isopropylbenzamide] was tested, and the IC50 was less than 100 nM.
